These results are taken from patent publication US12583870B2, “Azaheteroaryl compound and application thereof” (SHANGHAI BLUERAY BIOPHARMA CO., LTD., priority 2019, dated 2026).

Assay [1] deals with trimethylation level of histone H3K27 in G401 cells. Put plainly: ELISA (H3K27 trimethylation) analysis in G401 cells. The assay is classed as cell-based. As to conditions: Homo sapiens, G-401, 72 hours, H3K27me3 standardized to H3. Put shortly: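 Cells exposed 72 h to 10-point 3-fold dilutions, top 10 μM, 0.5% final DMSO. Acid-extracted histones assayed by ELISA (ECL) for H3K27me3, normalized to total H3 and to DMSO control; IC50 from dose-response fit.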
On the technique in general: An ELISA detects its analyte on a solid surface through an enzyme-linked reagent.

The target in assay [2] is T1, EED protein (His6-tagged full-length) binding to H3K27me3 polypeptide (Homo sapiens, UniProt O75530).
T1 construct: His6-tagged full-length EED protein (441 amino acids)
T1 sequence (O75530 whole entry): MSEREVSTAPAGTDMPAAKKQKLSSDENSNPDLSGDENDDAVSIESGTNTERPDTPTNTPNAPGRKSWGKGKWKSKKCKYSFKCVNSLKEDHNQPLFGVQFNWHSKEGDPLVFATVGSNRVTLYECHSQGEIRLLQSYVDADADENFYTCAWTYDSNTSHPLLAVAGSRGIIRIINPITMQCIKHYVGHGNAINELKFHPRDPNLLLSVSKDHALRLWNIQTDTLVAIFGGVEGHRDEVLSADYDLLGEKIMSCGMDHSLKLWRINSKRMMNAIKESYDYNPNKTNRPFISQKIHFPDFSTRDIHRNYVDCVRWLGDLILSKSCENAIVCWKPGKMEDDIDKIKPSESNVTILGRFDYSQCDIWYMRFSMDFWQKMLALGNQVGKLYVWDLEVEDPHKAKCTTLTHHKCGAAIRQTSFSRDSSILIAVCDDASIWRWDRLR
In words: AlphaScreen evaluation of blocking the binding of EED to H3K27Me3. As to conditions: EED 60 nM, biotinylated H3K27me3 75 nM, 30 minutes incubation. The protocol:
Firstly, compound solutions of different concentration gradients were prepared. Compound powder was dissolved in DMSO to prepare a mother liquor. 1.5 μl of the mother liquor of the compound was taken and added into 198.5 μl of a reaction buffer (25 mM HEPES (pH 8.0), 50 mM NaCl, 0.015% Tween 20, 0.5% BSA). The mixture was mixed uniformly. Then a 3-fold series dilution was carried out with the above-mentioned buffer containing 0.75% DMSO. 9 different test concentrations were provided for one same compound. 5 μL of compounds of different concentration gradients were taken and added into the ProxiPlate-384 Plus, White detection plate (PerkinElmer, 6008280) and two replicates in parallel were provided for each concentration gradient.
Secondly, a reaction for blocking the binding was carried out. The above-mentioned buffer was used to dilute His6-tagged full-length EED protein (441 amino acids) to 60 nM and biotinylated polypeptide fragment H3K27me3 (amino acids at positions 19-33) (Biotinylated-H3K27me3) to 75 nM. 5 μl of the polypeptide fragment at the concentration of 75 nM and 5 µl of the protein at the concentration of 60 nM were transferred to the detection wells containing the compound, respectively. The detection plate was sealed with the film and incubation was carried out at room temperature for 30 minutes.
Finally, the detection was carried out with the AlphaScreen method. Prior use, nickel chelate receptor beads and streptavidin donor beads (at the ratio of 1:1, Perkin Elmer, product number 6760619M) were mixed with the above-mentioned reaction buffer. Then 5 μl of the above-mentioned pre-mixed detection solution was added to each of the detection wells. The donor beads and receptor beads were both at a final concentration of 5 μg/mL. The detection plate was covered and sealed with tinfoil and placed in the dark at room temperature for 1 hour. The signal was read using the AlphaScreen detector on the Spectra max i3. AlphaScreen signals were standardlized based on the readings obtained from positive controls (maximum signal controls) and negative controls (minimum signal controls) to give the inhibition rates for compounds at different concentrations, and afterwards non-linear regression analysis was carried out using GraphPad Prism 5, inhibition curves were made based on the Dose-Response equation of Y=Bottom+(Top−Bottom)/(1+10^((Log IC50−X)*HillSlope)) and the IC50 values of each compound were obtained. […]
A general note: In Alpha technology, singlet oxygen from a donor bead excites a nearby acceptor bead.

In a further assay the test system is KARPAS-422 cells. In words: Cell proliferation analysis, KARPAS-422, 13 days, CellTiter-Glo. The format is cell-based. As to conditions: Homo sapiens, 312 h. In short, it runs like this: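 KARPAS-422 cells were treated with PRC2 inhibitors over 9 three-fold dilutions from 10 μM top (0.5% DMSO, duplicates) in RPMI-1640 with 15% FBS at 37 °C. Every 3–4 days cells were counted and reseeded at 1×10^4/well with fresh compound. Viability was read by CellTiter-Glo luminescence on day 13.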
Background: ATP-based viability assays read luminescence as a measure of living cells.

One may read the IC50 as the midpoint of a concentration-inhibition curve. In the case of `CC(=O)c1c(C)nc2c(-c3cnc(NCc4c(F)ccc5c4CCO5)n4cnnc34)cc(F)cn12` [1-(6-fluoro-8-(5-(((5-fluoro-2,3-dihydrobenzofuran-4-yl)methyl)amino)-[1,2,4]triazolo[4,3-c]pyrimidin-8-yl)-2-methylimidazo[1,2-a]pyridin-3-yl)ethan-1-one], the IC50 is 0.0015 µM in assay [1], 0.016 µM in assay [2] and 0.0011 µM in the assay on KARPAS-422 cells.
Taken in the same sequence, the figures for `CC(=O)c1c(C)nc2c(-c3cnc(NCc4c(F)ccc5c4CCO5)n4cnnc34)cccn12` [1-(8-(5-(((5-fluoro-2,3-dihydrobenzofuran-4-yl)methyl)amino)-[1,2,4]triazolo[4,3-c]pyrimidin-8-yl)-2-methylimidazo[1,2-a]pyridin-3-yl)ethan-1-one] were 0.0025 µM, 0.0048 µM and 0.0016 µM.
As for `Cc1ccc(-c2cnc(NCc3c(F)ccc4c3CCO4)n3cnnc23)c2ncc(CC(=O)N(C)C)n12` [2-(8-(5-(((5-fluoro-2,3-dihydrobenzofuran-4-yl)methyl)amino)-[1,2,4]triazolo[4,3-c]pyrimidin-8-yl)-5-methylimidazo[1,2-a]pyridin-3-yl)-N,N-dimethylacetamide], the IC50 in assay [1] is 0.0016 µM; in assay [2], 0.0114 µM; with KARPAS-422 cells it was 0.0061 µM.
The corresponding values for `Cc1ccc(-c2cnc(NCc3c(F)ccc4c3CCO4)n3cnnc23)c2ncc(CC(N)=O)n12` [2-(8-(5-(((5-fluoro-2,3-dihydrobenzofuran-4-yl)methyl)amino)-[1,2,4]triazolo[4,3-c]pyrimidin-8-yl)-5-methylimidazo[1,2-a]pyridin-3-yl)acetamide] are 0.003 µM, 0.0118 µM and 0.0032 µM.
Take `Cc1ccc(-c2cnc(NCc3c(F)ccc4c3CCO4)n3cnnc23)c2ncc(CC(=O)O)n12` [2-(8-(5-(((5-fluoro-2,3-dihydrobenzofuran-4-yl)methyl)amino)-[1,2,4]triazolo[4,3-c]pyrimidin-8-yl)-5-methylimidazo[1,2-a]pyridin-3-yl)acetic acid]: the IC50 in assay [1] came out at 0.004 µM; in assay [2], 0.0054 µM; in the assay on KARPAS-422 cells it was 0.0047 µM.
Turning to `Cc1ccc(-c2cnc(NCc3c(F)ccc4c3CCO4)n3cnnc23)c2ncc(CCO)n12` [2-(8-(5-(((5-fluoro-2,3-dihydrobenzofuran-4-yl)methyl)amino)-[1,2,4]triazolo[4,3-c]pyrimidin-8-yl)-5-methylimidazo[1,2-a]pyridin-3-yl)ethan-1-ol], the IC50 in assay [1] is 0.0016 µM; in assay [2], 0.0099 µM; in the assay on KARPAS-422 cells, 0.0024 µM.
Taken in the same sequence, the figures for `CC(=O)OCCc1cnc2c(-c3cnc(NCc4c(F)ccc5c4CCO5)n4cnnc34)ccc(C)n12` [2-(8-(5-(((5-fluoro-2,3-dihydrobenzofuran-4-yl)methyl)amino)-[1,2,4]triazolo[4,3-c]pyrimidin-8-yl)-5-methylimidazo[1,2-a]pyridin-3-yl)ethyl acetate] were 0.001 µM, 0.0062 µM and 0.0017 µM.
The corresponding values for `CC1=C(F)S(=O)(=O)c2ccc(-c3cnc(NCc4c(F)ccc5c4[C@H]4C[C@H]4O5)n4cnnc34)cc21` [2-fluoro-5-(5-((((1aR,6bR)-5-fluoro-1a,6b-dihydro-1H-cyclopropa[b]benzofuran-6-yl)methyl)amino)-[1,2,4]triazolo[4,3-c]pyrimidin-8-yl)-3-methylbenzo[b]thiophene 1,1-dioxide] are 0.022 µM, 0.0041 µM and 0.032 µM.
The corresponding values for `O=S1(=O)C(F)=Cc2cc(-c3cnc(NCc4c(F)ccc5c4[C@H]4C[C@H]4O5)n4cnnc34)ccc21` [2-fluoro-5-(5-((((1aR,6bR)-5-fluoro-1a,6b-dihydro-1H-cyclopropa[b]benzofuran-6-yl)methyl)amino)-[1,2,4]triazolo[4,3-c]pyrimidin-8-yl)benzo[b]thiophene 1,1-dioxide] are 0.16 µM, 0.566 µM and 0.079 µM.
Consider `NCCC1=CS(=O)(=O)c2ccc(-c3cnc(NCc4c(F)ccc5c4[C@@H]4C[C@@H]4O5)n4cnnc34)cc21` [3-(2-aminoethyl)-5-(5-((((1aS,6bS)-5-fluoro-1a,6b-dihydro-1H-cyclopropa[b]benzofuran-6-yl)methyl)amino)-[1,2,4]triazolo[4,3-c]pyrimidin-8-yl)benzo[b]thiophene 1,1-dioxide], for which the IC50 in assay [1] stood at 0.075 µM; in assay [2], 0.0054 µM; in the assay with KARPAS-422 cells, 0.033 µM.
The corresponding values for `CC1=C(F)c2cc(-c3cnc(NCc4c(F)ccc5c4CCO5)n4cnnc34)ccc2S1(=O)=O` [3-fluoro-5-(5-(((5-fluoro-2,3-dihydrobenzofuran-4-yl)methyl)amino)-[1,2,4]triazolo[4,3-c]pyrimidin-8-yl)-2-methylbenzo[b]thiophene 1,1-dioxide] are 0.0073 µM, 0.0026 µM and 0.0049 µM.
The corresponding values for `CC1=C(F)c2cc(-c3cnc(NCc4c(F)ccc5c4[C@H]4C[C@H]4O5)n4cnnc34)ccc2S1(=O)=O` [3-fluoro-5-(5-((((1aR,6bR)-5-fluoro-1a,6b-dihydro-1H-cyclopropa[b]benzofuran-6-yl)methyl)amino)-[1,2,4]triazolo[4,3-c]pyrimidin-8-yl)-2-methylbenzo[b]thiophene 1,1-dioxide] are 0.0058 µM, 0.0042 µM and 0.0055 µM.
For `CCOC(=O)c1c(C(F)(F)F)nc2c(-c3cnc(NCc4c(F)ccc5c4CCO5)n4cnnc34)cccn12` [Ethyl 8-(5-(((5-fluoro-2,3-dihydrobenzofuran-4-yl)methyl)amino)-[1,2,4]triazolo[4,3-c]pyrimidin-8-yl)-2-(trifluoromethyl)imidazo[1,2-a]pyridine-3-carboxylate], the IC50 in assay [1] is 0.202 µM; in assay [2], 0.029 µM.
Taken in the same sequence, the figures for `CCOC(=O)c1c(O)nc2c(-c3cnc(NCc4c(F)ccc5c4CCO5)n4cnnc34)cccn12` [Ethyl 8-(5-(((5-fluoro-2,3-dihydrobenzofuran-4-yl)methyl)amino)-[1,2,4]triazolo[4,3-c]pyrimidin-8-yl)-2-hydroxyimidazo[1,2-a]pyridine-3-carboxylate] were 0.068 µM and 0.0221 µM.
Taken in the same sequence, the figures for `Cc1ccc(-c2cnc(NCc3c(F)ccc4c3CCO4)n3cnnc23)c2ncc(F)n12` [N-((5-fluoro-2,3-dihydrobenzofuran-4-yl)methyl)-8-(3-fluoro-5-methylimidazo[1,2-a]pyridin-8-yl)-[1,2,4]triazolo[4,3-c]pyrimidin-5-amine] were 0.0061 µM and 0.0058 µM.
Taken in the same sequence, the figures for `Fc1ccc2c(c1CNc1ncc(-c3c(C(F)(F)F)ccc4nsnc34)c3nncn13)CCO2` [N-((5-fluoro-2,3-dihydrobenzofuran-4-yl)methyl)-8-(5-(trifluoromethyl)benzo[c][1,2,5]thiadiazol-4-yl)-[1,2,4]triazolo[4,3-c]pyrimidin-5-amine] were 0.17 µM and 0.0464 µM.
`Cc1cc(-c2cnc(NCc3c(F)ccc4c3CCO4)n3cnnc23)c2nc(C(F)(F)F)cn2c1` [N-((5-fluoro-2,3-dihydrobenzofuran-4-yl)methyl)-8-(6-methyl-2-(trifluoromethyl)imidazo[1,2-a]pyridin-8-yl)-[1,2,4]triazolo[4,3-c]pyrimidin-5-amine]: the results for the IC50 in assay [1] and in assay [2] were 0.041 µM and 0.0157 µM, respectively.
For `Fc1ccc2c(c1CNc1ncc(-c3cnc4nccn4c3)c3nncn13)CCO2` [N-((5-fluoro-2,3-dihydrobenzofuran-4-yl)methyl)-8-(imidazo[1,2-a]pyrimidin-6-yl)-[1,2,4]triazolo[4,3-c]pyrimidin-5-amine], the half-inhibitory concentration (IC50) was found to be 0.0129 µM in assay [1] and 0.0049 µM in assay [2].
As to `Fc1ccc2c(c1CNc1ncc(-c3cccc4cccnc34)c3nncn13)CCO2` [N-((5-fluoro-2,3-dihydrobenzofuran-4-yl)methyl)-8-(quinolin-8-yl)-[1,2,4]triazolo[4,3-c]pyrimidin-5-amine], the IC50 amounted to 0.0029 µM in assay [1] and 0.0051 µM in assay [2].
